Patent US9512111B2, “N-sulfonylated tetrahydroquinolines and related bicyclic compounds for inhibition of RORγ activity and the treatment of disease” (Lycera Corporation, priority 2010, dated 2016)

biological target: T1, RORγ-LBD (Homo sapiens, UniProt P51449); experiment: RORγ-Ligand Binding Domain TR-FRET Assay; type: biochemical; settings: Table 8, indazoles
T1 construct: HIS-tagged RORγ-LBD was recombinantly expressed in SF9 cells; made in house; host or cells: SF9 cells (baculovirus); unpurified lysate
T1 sequence (P51449 269-508 limits assumed): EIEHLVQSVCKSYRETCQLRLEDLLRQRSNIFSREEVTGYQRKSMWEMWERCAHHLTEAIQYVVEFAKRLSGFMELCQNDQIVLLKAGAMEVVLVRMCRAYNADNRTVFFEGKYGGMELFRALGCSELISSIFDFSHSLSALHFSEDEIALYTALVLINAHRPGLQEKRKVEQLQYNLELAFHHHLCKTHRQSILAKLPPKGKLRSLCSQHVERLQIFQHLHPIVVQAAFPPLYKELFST
Description: HIS-tagged RORγ-LBD was recombinantly expressed in SF9 cells using a baculovirus expression system. The protein was not purified. Cells were lysed and the lysate was used as a source for RORγ-LBD for the assay. A 1:80 dilution of RORγ-LBD lysate in assay buffer (25 mM HEPES pH 7.0, 100 mM NaCl, 0.01% Tween, 0.1% BSA) was prepared and 5 μL was added to each well (RORγ-LBD final concentration ˜10 nM). Control wells received lysate from SF9 cells not expressing RORγ-LBD.
Compounds to be tested were diluted to 100× final test concentration in DMSO and further diluted to 4× final test concentration using assay buffer to provide the test compound mixture. An aliquot (5 μL) of the test compound mixture was added to each well.
A 4× stock of biotinylated-LXXLL peptide from SRC1-2 (Biotin-[…]) was prepared in assay buffer and a 5 μL aliquot added to each well (450 nM final concentration). A 4× solution of europium tagged anti-HIS antibody (2 nM final concentration) and APC conjugated streptavidin (60 nM final concentration) were prepared and a 5 μL aliquot added to each well.
The final assay mixture was incubated for 4 hours to overnight, and the fluorescence signal was measured on an Envision plate reader: (Excitation filter=340 nm; APC emission=665 nm; Europium emission=615 nm; dichroic mirror=D400/D630; delay time=100 μs, integration time=200 μs).
IC50 values for test compounds were calculated from the quotient of the fluorescence signal at 665 nm divided by the fluorescence signal at 615 nm using GraphPad Prism software.

**Q.** Which IC50 does the source give for `Cc1cccc(S(=O)(=O)n2ncc3ccc(NC(=O)Cc4ccc(F)c(F)c4)cc32)c1` [Compound V-20] here?
**A.** The IC50 was < 15 µM.

**Q.** `O=C(Nc1ccc2cnn(S(=O)(=O)c3cccc(Cl)c3)c2c1)c1c(Cl)cccc1C(F)(F)F` [Compound V-39] was tested. Which IC50 did it give?
**A.** The IC50 was < 15 µM.

**Q.** For `Cc1ccc(S(=O)(=O)n2ncc3ccc(NC(=O)c4c(F)cccc4Cl)cc32)cc1Cl` [Compound V-127], which IC50 is on record?
**A.** The IC50 was < 15 µM.

**Q.** Which IC50 does the source give for `O=C(Nc1ccc2cnn(S(=O)(=O)c3ccc(Cl)c(Cl)c3)c2c1)c1c(F)cccc1Cl` [Compound V-154] here?
**A.** Its IC50 is < 15 µM.

**Q.** For `CNC(=O)Nc1ccc(S(=O)(=O)n2ncc3ccc(NC(=O)c4c(F)cccc4Cl)cc32)cc1` [Compound V-135], which IC50 is on record?
**A.** Its IC50 is < 15 µM.

**Q.** `O=C(Nc1ccc2cnn(S(=O)(=O)c3ccccc3F)c2c1)c1c(F)cccc1Cl` [Compound V-143] was tested. Which IC50 did it give?
**A.** The IC50 was < 15 µM.

**Q.** `O=C(Nc1ccc2cnn(S(=O)(=O)c3cccc(Cl)c3)c2c1)c1c(F)cccc1F` [Compound V-61] was tested. Which IC50 did it give?
**A.** The IC50 was < 15 µM.

**Q.** For `O=C(Nc1ccc2cnn(S(=O)(=O)Cc3cccc(Cl)c3)c2c1)c1c(F)cccc1Cl` [Compound V-86], which IC50 is on record?
**A.** Its IC50 is < 15 µM.

**Q.** How did the IC50 turn out when `O=C(Nc1ccc2cnn(S(=O)(=O)Cc3cc(Cl)cc(Cl)c3)c2c1)c1c(F)cccc1Cl` [Compound V-138] was run?
**A.** The IC50 was < 15 µM.

**Q.** With `O=C(Nc1ccc2cnn(S(=O)(=O)c3cccc(C(F)(F)F)c3)c2c1)c1c(F)cccc1F` [Compound V-64] as the compound, how does the IC50 read?
**A.** Its IC50 is < 15 µM.

**Q.** With `Cc1cc(F)ccc1S(=O)(=O)n1ncc2ccc(NC(=O)c3c(F)cccc3Cl)cc21` [Compound V-163] as the compound, how does the IC50 read?
**A.** Its IC50 is < 15 µM.

**Q.** For `COC(=O)c1ccccc1S(=O)(=O)n1ncc2ccc(NC(=O)c3c(F)cccc3Cl)cc21` [Compound V-142], which IC50 is on record?
**A.** Its IC50 is < 15 µM.

**Q.** How did the IC50 turn out when `CCn1cc(S(=O)(=O)n2ncc3ccc(NC(=O)c4c(F)cccc4Cl)cc32)cn1` [Compound V-113] was run?
**A.** The IC50 was < 15 µM.

**Q.** `Cc1cc(C)cc(S(=O)(=O)n2ncc3ccc(NC(=O)c4c(F)cccc4Cl)cc32)c1` [Compound V-123] was tested. Which IC50 did it give?
**A.** Its IC50 is < 15 µM.

**Q.** With `CN(C)C(=O)Nc1ccc(S(=O)(=O)n2ncc3ccc(NC(=O)c4c(F)cccc4Cl)cc32)cc1` [Compound V-134] as the compound, how does the IC50 read?
**A.** The IC50 was < 15 µM.

**Q.** With `O=C(Nc1ccc2cnn(S(=O)(=O)c3ccccc3)c2c1)c1c(F)cccc1Cl` [Compound V-159] as the compound, how does the IC50 read?
**A.** Its IC50 is < 15 µM.

**Q.** With `Cc1c(F)cccc1S(=O)(=O)n1ncc2ccc(NC(=O)c3c(F)cccc3Cl)cc21` [Compound V-102] as the compound, how does the IC50 read?
**A.** The IC50 was < 15 µM.

**Q.** How did the IC50 turn out when `O=C(Nc1ccc2cnn(S(=O)(=O)c3ccc(N4CCOCC4)nc3)c2c1)c1c(F)cccc1Cl` [Compound V-95] was run?
**A.** The IC50 was < 15 µM.

**Q.** `Cc1cccc(S(=O)(=O)n2ncc3ccc(NC(=O)Cc4ccc(F)cc4)cc32)c1` [Compound V-25] was tested. Which IC50 did it give?
**A.** Its IC50 is < 15 µM.

**Q.** For `O=C(Nc1ccc2cnn(S(=O)(=O)Cc3cccc(C(F)(F)F)c3)c2c1)c1c(F)cccc1Cl` [Compound V-137], which IC50 is on record?
**A.** The IC50 was < 15 µM.

**Q.** With `O=C(Nc1ccc2cnn(S(=O)(=O)c3c(F)cccc3F)c2c1)c1c(F)cccc1Cl` [Compound V-128] as the compound, how does the IC50 read?
**A.** Its IC50 is < 15 µM.

**Q.** `COc1ccc(S(=O)(=O)n2ncc3ccc(NC(=O)c4c(F)cccc4Cl)cc32)c(OC)c1` [Compound V-91] was tested. Which IC50 did it give?
**A.** The IC50 was < 15 µM.

**Q.** With `O=C(Nc1ccc2cnn(S(=O)(=O)c3cccc(C(F)(F)F)c3)c2c1)c1c(F)cccc1C(F)(F)F` [Compound V-51] as the compound, how does the IC50 read?
**A.** Its IC50 is < 15 µM.

**Q.** How did the IC50 turn out when `COc1ccc(C)cc1S(=O)(=O)n1ncc2ccc(NC(=O)c3c(F)cccc3Cl)cc21` [Compound V-78] was run?
**A.** The IC50 was < 15 µM.

**Q.** How did the IC50 turn out when `COC(=O)c1cc(C)c(S(=O)(=O)n2ncc3ccc(NC(=O)c4c(F)cccc4Cl)cc32)s1` [Compound V-152] was run?
**A.** The IC50 was < 15 µM.

**Q.** With `O=C(Nc1ccc2cnn(S(=O)(=O)c3cccc(OC(F)(F)F)c3)c2c1)c1c(F)cccc1F` [Compound V-63] as the compound, how does the IC50 read?
**A.** The IC50 was < 15 µM.

**Q.** Which IC50 does the source give for `Cc1nn(C(F)F)cc1S(=O)(=O)n1ncc2ccc(NC(=O)c3c(Cl)cccc3C(F)(F)F)cc21` [Compound V-21] here?
**A.** Its IC50 is < 15 µM.

**Q.** How did the IC50 turn out when `O=C(Nc1ccc2cnn(S(=O)(=O)Cc3ccc(F)cc3)c2c1)c1c(F)cccc1Cl` [Compound V-160] was run?
**A.** The IC50 was < 15 µM.

**Q.** For `COC(=O)c1cccc(S(=O)(=O)n2ncc3ccc(NC(=O)c4c(F)cccc4Cl)cc32)c1` [Compound V-108], which IC50 is on record?
**A.** Its IC50 is < 15 µM.

**Q.** With `O=C(Nc1ccc2cnn(S(=O)(=O)c3ccc(Cl)s3)c2c1)c1c(F)cccc1Cl` [Compound V-96] as the compound, how does the IC50 read?
**A.** The IC50 was < 15 µM.

**Q.** For `O=C(Nc1ccc2cnn(S(=O)(=O)c3cccc(OC(F)F)c3)c2c1)c1c(Cl)cccc1Cl` [Compound V-68], which IC50 is on record?
**A.** The IC50 was < 15 µM.

**Q.** Which IC50 does the source give for `Cc1ncc(CC(=O)Nc2ccc3cnn(S(=O)(=O)c4cccc(OC(F)F)c4)c3c2)s1` [Compound V-3] here?
**A.** Its IC50 is < 15 µM.

**Q.** `O=C(Nc1ccc2cnn(S(=O)(=O)c3cc(Cl)cc(Cl)c3)c2c1)c1c(F)cccc1Cl` [Compound V-126] was tested. Which IC50 did it give?
**A.** Its IC50 is < 15 µM.

**Q.** With `CC(C)(C)c1cccc(S(=O)(=O)n2ncc3ccc(NC(=O)c4c(F)cccc4F)cc32)c1` [Compound V-57] as the compound, how does the IC50 read?
**A.** The IC50 was < 15 µM.

**Q.** Which IC50 does the source give for `N#Cc1ccccc1S(=O)(=O)n1ncc2ccc(NC(=O)c3c(F)cccc3Cl)cc21` [Compound V-87] here?
**A.** Its IC50 is < 15 µM.

**Q.** Which IC50 does the source give for `O=C(Nc1ccc2cnn(S(=O)(=O)c3cccnc3)c2c1)c1c(F)cccc1Cl` [Compound V-94] here?
**A.** The IC50 was < 15 µM.

**Q.** `Cc1cccc(S(=O)(=O)n2ncc3ccc(NC(=O)c4c(F)cccc4Cl)cc32)c1` [Compound V-124] was tested. Which IC50 did it give?
**A.** The IC50 was < 15 µM.

**Q.** `O=C(Nc1ccc2cnn(S(=O)(=O)c3cccc(OC(F)(F)F)c3)c2c1)c1c(Cl)cccc1Cl` [Compound V-74] was tested. Which IC50 did it give?
**A.** The IC50 was < 15 µM.

**Q.** For `N#Cc1ccc(S(=O)(=O)n2ncc3ccc(NC(=O)c4c(F)cccc4Cl)cc32)c(Cl)c1` [Compound V-146], which IC50 is on record?
**A.** The IC50 was < 15 µM.

**Q.** How did the IC50 turn out when `CC(=O)c1cccc(S(=O)(=O)n2ncc3ccc(NC(=O)Cc4ccc(F)cc4)cc32)c1` [Compound V-24] was run?
**A.** The IC50 was < 15 µM.

**Q.** For `O=C(Nc1ccc2cnn(S(=O)(=O)c3ccc(F)cc3F)c2c1)c1c(F)cccc1Cl` [Compound V-168], which IC50 is on record?
**A.** Its IC50 is < 15 µM.

**Q.** Which IC50 does the source give for `CC(=O)c1cccc(S(=O)(=O)n2ncc3ccc(NC(=O)Cc4ccc(Cl)cc4)cc32)c1` [Compound V-30] here?
**A.** Its IC50 is < 15 µM.

same assay, conditions: benzoxazines, Table 9

**Q.** How did the IC50 turn out when `N#Cc1cccc(S(=O)(=O)N2C[C@@H](CO)Oc3ccc(NC(=O)c4c(F)cccc4F)cc32)c1` [VI-60] was run?
**A.** The IC50 was < 15 µM.

**Q.** How did the IC50 turn out when `Cc1cccc(Cl)c1C(=O)Nc1ccc2c(c1)N(S(=O)(=O)c1ccc(F)cc1)C[C@H](C)O2` [VI-21] was run?
**A.** The IC50 was < 15 µM.

**Q.** With `N#Cc1cccc(S(=O)(=O)N2C[C@H](CO)Oc3ccc(NC(=O)Cc4ccc(Cl)cc4)cc32)c1` [VI-61] as the compound, how does the IC50 read?
**A.** Its IC50 is < 15 µM.

**Q.** `CNCC1CN(S(=O)(=O)c2ccc(F)cc2)c2cc(NC(=O)c3c(F)cccc3Cl)ccc2O1` (centres unmarked) [Compound 14] was tested. Which IC50 did it give?
**A.** The IC50 was < 15 µM.

**Q.** `C[C@H]1CN(S(=O)(=O)c2ccc(F)cc2)c2cc(NC(=O)c3c(Cl)cccc3C(F)(F)F)ccc2O1` [VI-20] was tested. Which IC50 did it give?
**A.** The IC50 was < 15 µM.

**Q.** With `N#Cc1cccc(S(=O)(=O)N2C[C@@H](CO)Oc3ccc(NC(=O)c4c(F)cccc4Cl)cc32)c1` [VI-59] as the compound, how does the IC50 read?
**A.** Its IC50 is < 15 µM.

**Q.** For `O=C(Nc1ccc2c(c1)N(S(=O)(=O)c1ccc(F)cc1)CCO2)c1c(F)cccc1Cl` [Compound 17, 2-Chloro-6-fluoro-N-(4-((4-fluorophenyl)sulfonyl)-3,4-dihydro-2H-benzo[b][1,4]oxazin-6-yl)benzamide], which IC50 is on record?
**A.** The IC50 was > 15 µM.

**Q.** With `CC(C(=O)Nc1ccc2c(c1)N(S(=O)(=O)c1ccc(F)cc1)C[C@H](C)O2)c1ccc(Cl)cc1` (some centres unmarked) [VI-136] as the compound, how does the IC50 read?
**A.** Its IC50 is < 15 µM.

**Q.** Which IC50 does the source give for `N#Cc1cccc(S(=O)(=O)N2C[C@@H](CO)Oc3ccc(NC(=O)c4c(F)cccc4C(F)(F)F)cc32)c1` [VI-57] here?
**A.** Its IC50 is < 15 µM.

**Q.** With `COCC1CN(S(=O)(=O)c2ccc(F)c(F)c2)c2cc(NC(=O)Cc3ccc(Cl)cc3)ccc2O1` (centres unmarked) [VI-69] as the compound, how does the IC50 read?
**A.** Its IC50 is > 15 µM.

**Q.** Which IC50 does the source give for `C[C@H](O)[C@H]1CN(S(=O)(=O)c2ccc(F)cc2)c2cc(NC(=O)c3c(F)cccc3Cl)ccc2O1` [VI-23] here?
**A.** Its IC50 is < 15 µM.
